Laboratory results as given in ChEMBL document CHEMBL1201862, “PubChem BioAssay data set” (2004).
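Where inhibition never reached the appropriate level, the endpoint shown equals the highest concentration tested. Otherwise, values were interpolated linearly from a five-concentration, 48-hour dose response in 96-well plates. At the GI50, growth is halved.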 Active and inactive are the calls of the source. No stated cut-off is given here; in the data, active = GI50 up to about 1.1 µM and inactive = higher.

Tests used:
Test in all cases: NCI-60 cell line screen, 48 h
SF-539 = system: SF-539
SN12C = system: SN12C
UACC-62 = system: UACC-62
OVCAR-8 = system: OVCAR-8
A498 = system: A498
M14 = system: M14
SK-OV-3 = system: SK-OV-3
MCF7 = system: MCF7
K562 = system: K562
NCI-H460 = system: NCI-H460
HT-29 = system: HT-29
HCT-15 = system: HCT-15
HCT-116 = system: HCT-116
BT-549 = system: BT-549
PC-3 = system: PC-3
RPMI-8226 = system: RPMI-8226
MDA-MB-435 = system: MDA-MB-435
MDA-N = system: MDA-N
OVCAR-5 = system: OVCAR-5
SNB-75 = system: SNB-75
IGROV-1 = system: IGROV-1
U-251 = system: U-251
CAKI-1 = system: CAKI-1
SF-295 = system: SF-295
MDA-MB-231 = system: MDA-MB-231
HOP-92 = system: HOP-92
UO-31 = system: UO-31
NCI-H522 = system: NCI-H522
EKVX = system: EKVX
ACHN = system: ACHN
HOP-62 = system: HOP-62
SF-268 = system: SF-268
SK-MEL-5 = system: SK-MEL-5
SW-620 = system: SW-620
SR = system: SR
MOLT-4 = system: MOLT-4
KM12 = system: KM12
OVCAR-4 = system: OVCAR-4
COLO 205 = system: COLO 205
HL-60 = system: HL-60
NCI-H226 = system: NCI-H226
SK-MEL-2 = system: SK-MEL-2
DU-145 = system: DU-145
T47D = system: T47D
A549 = system: A549
OVCAR-3 = system: OVCAR-3
LOX IMVI = system: LOX IMVI
SK-MEL-28 = system: SK-MEL-28
Hs-578T = system: Hs-578T
TK-10 = system: TK-10
NCI/ADR-RES = system: NCI/ADR-RES
UACC-257 = system: UACC-257
SNB-19 = system: SNB-19
786-0 = system: 786-0
HCC 2998 = system: HCC 2998
CCRF-CEM = system: CCRF-CEM
NCI-H23 = system: NCI-H23
RXF 393 = system: RXF 393
Malme-3M = system: Malme-3M

C=C([C@@]1(O)C[C@H]2[C@H](CCC2(OC)OC)[C@@H]2c3ccccc3O[C@@H]21)[Si](C)(C)C
GI50 (SF-539): > 100 µM (inactive) | GI50 (SN12C): > 100 µM (inactive) | GI50 (UACC-62): > 100 µM (inactive) | GI50 (OVCAR-8): > 100 µM (inactive) | GI50 (A498): > 100 µM (inactive) | GI50 (M14): > 100 µM (inactive) | GI50 (SK-OV-3): > 100 µM (inactive) | GI50 (MCF7): 93.1 µM (inactive) | GI50 (K562): 59.3 µM (inactive) | GI50 (NCI-H460): > 100 µM (inactive) | GI50 (HT-29): > 100 µM (inactive) | GI50 (HCT-15): > 100 µM | GI50 (HCT-116): > 100 µM (inactive) | GI50 (BT-549): > 100 µM (inactive) | GI50 (PC-3): > 100 µM (inactive) | GI50 (RPMI-8226): 44.4 µM (inactive) | GI50 (MDA-MB-435): > 100 µM (inactive) | GI50 (MDA-N): > 100 µM (inactive) | GI50 (OVCAR-5): > 100 µM (inactive) | GI50 (SNB-75): > 100 µM (inactive) | GI50 (IGROV-1): > 100 µM (inactive) | GI50 (U-251): > 100 µM (inactive) | GI50 (CAKI-1): > 100 µM (inactive) | GI50 (SF-295): > 100 µM (inactive) | GI50 (MDA-MB-231): > 100 µM (inactive) | GI50 (HOP-92): 1.78 µM (inactive) | GI50 (UO-31): 76.7 µM (inactive) | GI50 (NCI-H522): 89.7 µM (inactive) | GI50 (EKVX): > 100 µM (inactive) | GI50 (ACHN): > 100 µM (inactive) | GI50 (HOP-62): > 100 µM (inactive) | GI50 (SF-268): > 100 µM (inactive) | GI50 (SK-MEL-5): > 100 µM (inactive) | GI50 (SW-620): > 100 µM (inactive) | GI50 (SR): 31.9 µM (inactive) | GI50 (MOLT-4): > 100 µM (inactive) | GI50 (KM12): > 100 µM (inactive) | GI50 (OVCAR-4): > 100 µM (inactive) | GI50 (COLO 205): > 100 µM (inactive) | GI50 (HL-60): 25.5 µM (inactive) | GI50 (NCI-H226): > 100 µM (inactive) | GI50 (SK-MEL-2): > 100 µM (inactive) | GI50 (DU-145): > 100 µM (inactive) | GI50 (T47D): 69.8 µM (inactive) | GI50 (A549): > 100 µM (inactive) | GI50 (OVCAR-3): > 100 µM (inactive) | GI50 (LOX IMVI): > 100 µM (inactive) | GI50 (SK-MEL-28): > 100 µM (inactive) | GI50 (Hs-578T): > 100 µM (inactive) | GI50 (TK-10): > 100 µM (inactive) | GI50 (NCI/ADR-RES): > 100 µM (inactive) | GI50 (UACC-257): > 100 µM (inactive) | GI50 (SNB-19): > 100 µM (inactive) | GI50 (786-0): > 100 µM (inactive) | GI50 (HCC 2998): > 100 µM (inactive)

O=C1c2ccccc2C(=O)N1C1(C(=O)NC2(C(=O)O)CCCC2)CCCC1
GI50 (SN12C): > 100 µM (inactive) | GI50 (UACC-62): > 100 µM (inactive) | GI50 (OVCAR-8): > 100 µM (inactive) | GI50 (A498): > 100 µM (inactive) | GI50 (M14): > 100 µM (inactive) | GI50 (SK-OV-3): > 100 µM (inactive) | GI50 (MCF7): > 100 µM (inactive) | GI50 (CCRF-CEM): > 100 µM (inactive) | GI50 (NCI-H23): > 100 µM (inactive) | GI50 (K562): > 100 µM (inactive) | GI50 (HT-29): > 100 µM (inactive) | GI50 (HCT-15): > 100 µM | GI50 (HCT-116): > 100 µM (inactive) | GI50 (BT-549): > 100 µM (inactive) | GI50 (RXF 393): > 100 µM (inactive) | GI50 (PC-3): > 100 µM (inactive) | GI50 (RPMI-8226): > 100 µM (inactive) | GI50 (MDA-MB-435): > 100 µM (inactive) | GI50 (MDA-N): > 100 µM (inactive) | GI50 (OVCAR-5): > 100 µM (inactive) | GI50 (SNB-75): > 100 µM (inactive) | GI50 (IGROV-1): > 100 µM (inactive) | GI50 (U-251): > 100 µM (inactive) | GI50 (CAKI-1): > 100 µM (inactive) | GI50 (SF-295): > 100 µM (inactive) | GI50 (MDA-MB-231): > 100 µM (inactive) | GI50 (UO-31): > 100 µM (inactive) | GI50 (NCI-H522): > 100 µM (inactive) | GI50 (EKVX): > 100 µM (inactive) | GI50 (ACHN): > 100 µM (inactive) | GI50 (HOP-62): > 100 µM (inactive) | GI50 (SF-268): > 100 µM (inactive) | GI50 (SK-MEL-5): > 100 µM (inactive) | GI50 (SW-620): > 100 µM (inactive) | GI50 (SR): > 100 µM (inactive) | GI50 (MOLT-4): > 100 µM (inactive) | GI50 (KM12): > 100 µM (inactive) | GI50 (OVCAR-4): > 100 µM (inactive) | GI50 (COLO 205): > 100 µM (inactive) | GI50 (Malme-3M): > 100 µM (inactive) | GI50 (NCI-H226): > 100 µM (inactive) | GI50 (SK-MEL-2): > 100 µM (inactive) | GI50 (DU-145): > 100 µM (inactive) | GI50 (T47D): > 100 µM (inactive) | GI50 (A549): > 100 µM (inactive) | GI50 (OVCAR-3): > 100 µM (inactive) | GI50 (LOX IMVI): > 100 µM (inactive) | GI50 (SK-MEL-28): > 100 µM (inactive) | GI50 (Hs-578T): > 100 µM (inactive) | GI50 (TK-10): > 100 µM (inactive) | GI50 (NCI/ADR-RES): > 100 µM (inactive) | GI50 (UACC-257): > 100 µM (inactive) | GI50 (SNB-19): > 100 µM (inactive) | GI50 (786-0): > 100 µM (inactive) | GI50 (HCC 2998): > 100 µM (inactive)
